{"source": "patent US12521335B2", "about": "“Cosmetic compositions containing vitamin C compounds and uses thereof” (RoC OPCO LLC, priority 2021, dated 2026)", "experiment": "DPPH antioxidant assay", "assay_type": "biochemical", "conditions": "for DPPH antioxidant activity percent, Avg ± SEM: from 0.1% v/v stock", "description": "The purpose of this study was to evaluate the overall antioxidant capacity of the serum formula of Example 1B and gel-cream formula of Example 1C for their ability to reduce the free radical 2,2-Diphenyl-1-picrylhydrazyl ([…] and Singh (2011). Genesis and development of DPPH method of antioxidant assay. (See J. Food Sci Technol. 2011 August; 48(4): 412-422.) Ascorbic Acid (Vitamin C) was used as positive antioxidant control in the assay. The testing involved the suppression of optical density (OD) at 530 nm to a degree, which is proportional to an effective antioxidant activity. Test and control agents were stored at recommended storage temperature until use. An initial 0.1, 1 or 10% v/v dilution was prepared for each test formula in ultra-pure grade water or […]® 355. Serial 2-fold dilutions were prepared for each material and mixed with DPPH in ethanol solution. All samples were compared to diluent-only treated samples used as negative antioxidant activity. Optical density changes at 530 nm were evaluated 10 minutes after addition of DPPH to each sample. Average absorbance was calculated and plotted for each sample concentration. Effective antioxidant inhibition activity based on the change of absorbance of blank (diluent-only) sample (no material added). […] The DPPH antioxidant assay method was performed to measure antioxidant capacity of test materials. The free radical, 2,2-Diphenyl-1-picrylhydrazyl (DPPH) was obtained from Cayman Chemical Co. (Cat. No. 14805) and a 0.2 mM (0.0788 mg/mL) solution was prepared with 200-proof ethanol (Acros Organics, Cat No. 61509-0020). The assay consisted in the evaluation of the overall antioxidant capacity of test materials ([…] and Singh, 2011) for the ability to reduce DPPH (purple color), a stable free radical to DPPHH (Diphenylpicrylhydrazine; light yellow color). The testing involved the suppression of optical density (OD) at 517-530 nm to a degree which is proportional to an effective antioxidant activity. The antioxidant capacity of each material was compared to ascorbic acid (vitamin C) used as standard control. An initial 0.1, 1 or 10% v/v dilution was prepared for each test formula in ultra-pure grade water or […]® 355. Two-fold serial dilutions were made from the stock solution samples. Negative control wells only diluent was added. The vehicle/diluent used was ultra-pure grade water (Cayman Chemical, Co.; Cat No. 400000) or […] Corp.; Lot No. 170310UT14). Diluents were stored at room temperature and handled by the research scientist. To prepare the serum stock formulation (0.1, 1, 10% v/v), 1:10, 1:100 or 1:1000 dilutions were prepared using a positive displacement pipette. To prepare the 20% Ascorbic Acid and 0.05% stock formulation, a 1-dram glass screw-top vial container was pre-weighed and material added to the container followed by addition of neat vehicle to make a 200 mg/mL or […] solution, respectively. Two-fold serial dilutions were made from the stock solution samples. […] Vials were sealed and formulations were immediately used for antioxidant assays.", "key": {"[1]": {"conditions": "DPPH antioxidant activity near 100%"}}}
{"smiles": "O=C1O[C@H]([C@@H](O)CO)C(O)=C1O", "note": "[20% Ascorbic Acid, Ascorbic Acid]", "values": [{"measurement": "DPPH antioxidant activity percent, Avg ± SEM", "setting": "0.001 % v/v", "result": "38 ± 8", "unit": "%"}, {"measurement": "DPPH antioxidant activity percent, Avg ± SEM", "setting": "0.002 % v/v", "result": "31 ± 11", "unit": "%"}, {"measurement": "DPPH antioxidant activity percent, Avg ± SEM", "setting": "0.003 % v/v", "result": "50 ± 13", "unit": "%"}, {"measurement": "DPPH antioxidant activity percent, Avg ± SEM", "setting": "0.006 % v/v", "result": "91 ± 4", "unit": "%"}, {"measurement": "DPPH antioxidant activity percent, Avg ± SEM", "setting": "0.013 % v/v", "result": "100 ± 0", "unit": "%"}, {"measurement": "DPPH antioxidant activity percent, Avg ± SEM", "setting": "0.025 % v/v", "result": "100 ± 0", "unit": "%"}, {"measurement": "DPPH antioxidant activity percent, Avg ± SEM", "setting": "0.050 % v/v", "result": "100 ± 0", "unit": "%"}, {"measurement": "Maximum effective Antioxidant Activity: Concentration (% v/v)", "setting": "[1]", "result": 0.0125, "unit": "% v/v"}, {"measurement": "Maximum effective Antioxidant Activity: Dilution Factor", "setting": "[1]", "result": "8,000"}]}
